{
  "source": "patent US10517889B2",
  "about": "“Modulators of SMAD7 expression” (Ionis Pharmaceuticals, Inc., priority 2017, dated 2019)",
  "key": {"human SMAD7 mRNA [1]": {"system": "human SMAD7 mRNA", "assay": "Antisense inhibition of human SMAD7 mRNA expression in Hep3B cells by 3-10-3 cEt gapmers, 10,000 nM, electroporation (Example 2)", "assay_type": "cell-based", "conditions": "approximately 24 hours", "outline": "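qRT-PCR (RTS5062) of SMAD7 mRNA, normalised to RIBOGREEN total RNA, gave percent inhibition relative to untreated controls. Hep3B cells at 20,000 per well received 10,000 nM oligonucleotide by electroporation, with ~24 h treatment.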"}, "human SMAD7 mRNA [2]": {"system": "human SMAD7 mRNA", "assay": "Dose-dependent inhibition of human SMAD7 mRNA expression in Hep3B cells, comparison with ION 28453 (Example 4)", "assay_type": "cell-based", "conditions": "electroporation, approximately 16 hours; for IC50: SMAD7 mRNA", "description": "Cells were plated at a density of 20,000 cells per well and transfected using electroporation with 0.25 μM, 0.74 μM, 2.22 μM, 6.67 μM, or 20.00 μM concentrations of antisense oligonucleotide, as specified in the Tables below. After a treatment period of approximately 16 hours, RNA was isolated from the cells and SMAD7 mRNA levels were measured by quantitative real-time PCR. Primer probe set RTS5062 was used to measure human SMAD7 mRNA levels. SMAD7 mRNA levels were adjusted according to total RNA content, as measured by RIBOGREEN®. Results are presented as percent inhibition of SMAD7 mRNa expression, relative to untreated control cells.\nThe half maximal inhibitory concentration (IC50) of each oligonucleotide is also presented. […] Several newly designed antisense oligonucleotides had greater potency than the previously disclosed lead compound, ION 28453."}, "human SMAD7 mRNA [3]": {"system": "human SMAD7 mRNA", "assay": "Dose-dependent inhibition of human SMAD7 mRNA expression in Hep3B cells (Example 3, Study 1 and 2)", "assay_type": "cell-based", "conditions": "electroporation; for % inhibition of SMAD7 mRNA expression: approximately 16 hours; for IC50: Study 2 (740-20000 nM)", "outline": "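Hep3B cells, 20,000 per well, electroporated with antisense oligonucleotide at 0.31, 1.25, 5.00 or 20.00 μM (first series) or 0.74, 2.22, 6.67 or 20.00 μM (second series). After ~16 h, SMAD7 mRNA measured by RT-qPCR (RTS5062), normalised to RIBOGREEN total RNA. Percent inhibition vs untreated cells; IC50 derived.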"}, "[4]": {"assay": "Organ weights after subcutaneous administration in CD-1 mice (Example 6)", "assay_type": "in vivo", "conditions": "end of study, 50 mg/kg subcutaneously twice a week for 7 weeks", "description": "(§1) Groups of 8-9 week old male CD-1 mice were injected subcutaneously twice a week for 7 weeks with 50 mg/kg of Ionis oligonucleotides (100 mg/kg/week dose). Each group contained 4 mice. One group of male CD-1 mice was injected subcutaneously twice a week for 7 weeks with PBS. Plasma was collected for analysis on day 28.\nIonis SMAD7 oligonucleotides that caused any changes in organ weights outside the expected range for antisense oligonucleotides were excluded from further studies."}, "[5]": {"assay": "Plasma chemistry markers after subcutaneous administration in CD-1 mice (Example 6)", "assay_type": "in vivo", "conditions": "CD-1 mice plasma at day 46; 50 mg/kg subcutaneously twice a week for 7 weeks", "description": "CD-1® mice (Charles River, Mass.) are a multipurpose mice model, frequently utilized for safety and efficacy testing. The mice were treated with Ionis human SMAD7 antisense oligonucleotides selected from studies described above and evaluated.\nGroups of 8-9 week old male CD-1 mice were injected subcutaneously twice a week for 7 weeks with 50 mg/kg of Ionis oligonucleotides (100 mg/kg/week dose). Each group contained 4 mice. One group of male CD-1 mice was injected subcutaneously twice a week for 7 weeks with PBS. […]"}, "[6]": {"assay": "Hematology assays after subcutaneous administration in CD-1 mice (Example 6)", "assay_type": "in vivo", "design": "RBC / Eosinophils / Monocytes: unit not given here", "conditions": "50 mg/kg subcutaneous twice weekly for 7 weeks", "description": "as §1\nBlood obtained from all mouse groups was measured by an ADVIA2120i hematology analyzer (Siemens, USA) for measurements of the various blood cells, as well as other hematology markers."}, "mouse Smad7 mRNA": {"system": "mouse Smad7 mRNA", "assay": "Murine Smad7 mRNA expression after subcutaneous administration in BALB/c mice (Example 10)", "assay_type": "in vivo", "conditions": "50 mg/kg subcutaneous once a week for 4 weeks, 24 hours after last dose", "description": "The objective of this study was to evaluate the efficacy of Ionis SMAD7 antisense oligonucleotides compared to ION 736697/Mongersen in BALB/c mice following 4 weeks of treatment. Both ION 830025 and ION 798781 are cross-reactive with mouse Smad7 mRNA.\nGroups of BALB/c mice were subcutaneously administered 50 mg/kg of Ionis SMAD7 oligonucleotides once a week for 4 weeks. Each group contained 4 mice. One group of mice was administered PBS once a week for 4 weeks. […]"}, "[7]": {"conditions": "SMAD7 mRNA, Hep3B cells, 10,000 nM antisense oligonucleotide, electroporation, primer probe set RTS5062, relative to untreated control cells"}, "[8]": {"conditions": "740 nM, Study 2, relative to untreated control cells"}},
  "note": "Strand notation (5' to 3'): a small letter for the sugar, then the base; units joined by * are phosphorothioate-linked, units joined directly phosphodiester-linked; [ ] holds rarer units or linkages, { } end groups; capitals alone tell only the bases. k = constrained ethyl (cEt); [5mC] = 5-methylcytosine; d = 2'-deoxy (DNA)",
  "data": [
    {"substance": "801040 (antisense kG*kT*k[5mC]*dA*dT*dG*dA*dA*dA*dG*dA*dT*dT*k[5mC]*kT*kT) [compound 801040]", "values": [
      {"measurement": "% Inhibition", "setting": "human SMAD7 mRNA [1]; [7]", "value": 72, "unit": "%"},
      {"measurement": "% inhibition of SMAD7 mRNA expression", "setting": "human SMAD7 mRNA [2]; 0.25 μM", "value": 31, "unit": "%"},
      {"measurement": "% inhibition of SMAD7 mRNA expression", "setting": "human SMAD7 mRNA [2]; 0.74 μM", "value": 44, "unit": "%"},
      {"measurement": "% inhibition of SMAD7 mRNA expression", "setting": "human SMAD7 mRNA [2]; 2.22 μM", "value": 67, "unit": "%"},
      {"measurement": "% inhibition of SMAD7 mRNA expression", "setting": "human SMAD7 mRNA [2]; 6.67 μM", "value": 63, "unit": "%"},
      {"measurement": "% inhibition of SMAD7 mRNA expression", "setting": "human SMAD7 mRNA [2]; 20.00 μM", "value": 91, "unit": "%"},
      {"measurement": "IC50", "setting": "human SMAD7 mRNA [2]", "value": 1000, "unit": "nM"},
      {"measurement": "% inhibition of SMAD7 mRNA expression", "setting": "human SMAD7 mRNA [3]; [8]", "value": 52, "unit": "%"},
      {"measurement": "% inhibition of SMAD7 mRNA expression", "setting": "human SMAD7 mRNA [3]; 2220 nM, Study 2", "value": 55, "unit": "%"},
      {"measurement": "% inhibition of SMAD7 mRNA expression", "setting": "human SMAD7 mRNA [3]; 6670.0 nM, Study 2", "value": 60, "unit": "%"},
      {"measurement": "% inhibition of SMAD7 mRNA expression", "setting": "human SMAD7 mRNA [3]; 20000.0 nM, Study 2", "value": 95, "unit": "%"},
      {"measurement": "IC50", "setting": "human SMAD7 mRNA [3]", "value": 1000, "unit": "nM"}
    ]},
    {"substance": "801051 (antisense kG*kT*kG*dT*dT*d[5mC]*dA*dA*d[5mC]*dA*dA*dT*dG*k[5mC]*kT*kT) [compound 801051]", "values": [
      {"measurement": "% Inhibition", "setting": "human SMAD7 mRNA [1]; [7]", "value": 68, "unit": "%"},
      {"measurement": "% inhibition of SMAD7 mRNA expression", "setting": "human SMAD7 mRNA [2]; 0.25 μM", "value": 0, "unit": "%"},
      {"measurement": "% inhibition of SMAD7 mRNA expression", "setting": "human SMAD7 mRNA [2]; 0.74 μM", "value": 10, "unit": "%"},
      {"measurement": "% inhibition of SMAD7 mRNA expression", "setting": "human SMAD7 mRNA [2]; 2.22 μM", "value": 34, "unit": "%"},
      {"measurement": "% inhibition of SMAD7 mRNA expression", "setting": "human SMAD7 mRNA [2]; 6.67 μM", "value": 62, "unit": "%"},
      {"measurement": "% inhibition of SMAD7 mRNA expression", "setting": "human SMAD7 mRNA [2]; 20.00 μM", "value": 83, "unit": "%"},
      {"measurement": "IC50", "setting": "human SMAD7 mRNA [2]", "value": 4000, "unit": "nM"},
      {"measurement": "% inhibition of SMAD7 mRNA expression", "setting": "human SMAD7 mRNA [3]; [8]", "value": 52, "unit": "%"},
      {"measurement": "% inhibition of SMAD7 mRNA expression", "setting": "human SMAD7 mRNA [3]; 2220 nM, Study 2", "value": 62, "unit": "%"},
      {"measurement": "% inhibition of SMAD7 mRNA expression", "setting": "human SMAD7 mRNA [3]; 6670.0 nM, Study 2", "value": 76, "unit": "%"},
      {"measurement": "% inhibition of SMAD7 mRNA expression", "setting": "human SMAD7 mRNA [3]; 20000.0 nM, Study 2", "value": 88, "unit": "%"},
      {"measurement": "IC50", "setting": "human SMAD7 mRNA [3]", "value": 4000, "unit": "nM"}
    ]},
    {"substance": "830027 (antisense kA*kA*k[5mC]*d[5mC]*dA*dT*dT*dT*dA*dT*d[5mC]*dT*dG*kG*kT*kG) [compound 830027]", "values": [
      {"measurement": "% Inhibition", "setting": "human SMAD7 mRNA [1]; Hep3B cells, electroporation with 10,000 nM antisense oligonucleotide, SMAD7 mRNA by RT-PCR (RTS5062), relative to untreated control cells", "value": 23, "unit": "%"},
      {"measurement": "Organ weights, Kidneys", "setting": "[4]", "value": 0.6, "unit": "g"},
      {"measurement": "Organ weights, Liver", "setting": "[4]", "value": 2.6, "unit": "g"},
      {"measurement": "Organ weights, Spleen", "setting": "[4]", "value": 0.2, "unit": "g"},
      {"measurement": "ALT", "setting": "[5]", "value": 40, "unit": "IU/L"},
      {"measurement": "AST", "setting": "[5]", "value": 104, "unit": "IU/L"},
      {"measurement": "Albumin", "setting": "[5]", "value": 2.5, "unit": "g/dL"},
      {"measurement": "BUN", "setting": "[5]", "value": 23, "unit": "mg/dL"},
      {"measurement": "Eosinophils", "setting": "[6]", "value": 1.9},
      {"measurement": "Hematocrit", "setting": "[6]", "value": 44.7, "unit": "%"},
      {"measurement": "Hemoglobin", "setting": "[6]", "value": 14.7, "unit": "g/dL"},
      {"measurement": "Lymphocytes", "setting": "[6]", "value": 64.4, "unit": "%"},
      {"measurement": "MCH", "setting": "[6]", "value": 15.1, "unit": "pg"},
      {"measurement": "MCHC", "setting": "[6]", "value": 32.9, "unit": "g/dL"},
      {"measurement": "MCV", "setting": "[6]", "value": 46.3, "unit": "fL"},
      {"measurement": "Monocytes", "setting": "[6]", "value": 8.2},
      {"measurement": "Neutrophils", "setting": "[6]", "value": 25.6, "unit": "%"},
      {"measurement": "RBC", "setting": "[6]", "value": 9.7},
      {"measurement": "Reticulocytes", "setting": "[6]", "value": 3.4, "unit": "%"},
      {"measurement": "WBC", "setting": "[6]", "value": "8.6 10^3/μL"},
      {"measurement": "platelets", "setting": "[6]", "value": "1141.8 10^3/μL"}
    ]},
    {"substance": "ION 736697: uniform deoxy phosphorothioate oligonucleotide GTCGCCCCTTCTCCCCGCAGC (SEQ ID NO: 2736), same sequence and chemistry as GED-0301 (Mongersen) (DNA, all phosphorothioate, methylation of C not given here) [reference compound]", "values": [
      {"measurement": "Mouse Smad7 mRNA expression (% inhibition), Colon", "setting": "mouse Smad7 mRNA; colon", "value": 3, "unit": "% inhibition"},
      {"measurement": "Mouse Smad7 mRNA expression (% inhibition), Duodenum", "setting": "mouse Smad7 mRNA; duodenum", "value": 0, "unit": "% inhibition"},
      {"measurement": "Mouse Smad7 mRNA expression (% inhibition), Ileum", "setting": "mouse Smad7 mRNA; ileum", "value": 0, "unit": "% inhibition"},
      {"measurement": "Mouse Smad7 mRNA expression (% inhibition), Kidney", "setting": "mouse Smad7 mRNA; kidney", "value": 9, "unit": "% inhibition"},
      {"measurement": "Mouse Smad7 mRNA expression (% inhibition), Liver", "setting": "mouse Smad7 mRNA; liver", "value": 6, "unit": "% inhibition"}
    ]}
  ]
}
